US9688816B2, “Polyetherimide compositions and methods for the manufacture and use thereof” (SABIC Global Technologies B.V., priority 2011, dated 2017)
Entries after “also recorded” stand apart in the source; their conditions may differ.

Columns and labels:
[1] = system: alpha or beta in vitro estradiol receptors; test: competitive radio-ligand binding assay, statements that do not separate alpha and beta; parameters: species or system human; settings: alpha or beta receptor not separated; for estradiol binding / estradiol displacement: highest concentration 2.5×E-4 M
[2] = target: recombinant human estradiol receptors (rhER) beta 1 (β1) (Homo sapiens (Human), UniProt Q92731); test: competitive radio-ligand binding assay, rhER beta 1; settings: at as high as 2.5×E-4 molar concentration
Sequence of recombinant human estradiol receptors (rhER) beta 1 (β1) (Q92731 whole entry): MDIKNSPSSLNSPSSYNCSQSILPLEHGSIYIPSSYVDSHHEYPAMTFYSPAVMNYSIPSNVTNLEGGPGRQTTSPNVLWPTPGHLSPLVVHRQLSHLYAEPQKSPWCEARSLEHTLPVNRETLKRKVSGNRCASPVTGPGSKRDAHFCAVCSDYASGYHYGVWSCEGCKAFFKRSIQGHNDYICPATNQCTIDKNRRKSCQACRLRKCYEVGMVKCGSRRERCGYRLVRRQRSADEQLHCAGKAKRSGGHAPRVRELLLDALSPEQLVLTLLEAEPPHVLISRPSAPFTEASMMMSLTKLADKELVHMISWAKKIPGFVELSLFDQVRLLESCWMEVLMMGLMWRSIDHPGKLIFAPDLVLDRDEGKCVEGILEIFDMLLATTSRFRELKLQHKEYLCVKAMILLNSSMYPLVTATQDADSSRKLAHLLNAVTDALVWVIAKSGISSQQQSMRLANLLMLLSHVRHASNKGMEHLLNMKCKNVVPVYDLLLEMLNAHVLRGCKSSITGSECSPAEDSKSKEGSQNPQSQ

[3] = target: recombinant human estradiol receptors (rhER) alpha (α) (Homo sapiens (Human), UniProt P03372); test: competitive radio-ligand binding assay, rhER alpha; settings: at as high as 2.5×E-4 molar concentration
Sequence of recombinant human estradiol receptors (rhER) alpha (α) (P03372 whole entry): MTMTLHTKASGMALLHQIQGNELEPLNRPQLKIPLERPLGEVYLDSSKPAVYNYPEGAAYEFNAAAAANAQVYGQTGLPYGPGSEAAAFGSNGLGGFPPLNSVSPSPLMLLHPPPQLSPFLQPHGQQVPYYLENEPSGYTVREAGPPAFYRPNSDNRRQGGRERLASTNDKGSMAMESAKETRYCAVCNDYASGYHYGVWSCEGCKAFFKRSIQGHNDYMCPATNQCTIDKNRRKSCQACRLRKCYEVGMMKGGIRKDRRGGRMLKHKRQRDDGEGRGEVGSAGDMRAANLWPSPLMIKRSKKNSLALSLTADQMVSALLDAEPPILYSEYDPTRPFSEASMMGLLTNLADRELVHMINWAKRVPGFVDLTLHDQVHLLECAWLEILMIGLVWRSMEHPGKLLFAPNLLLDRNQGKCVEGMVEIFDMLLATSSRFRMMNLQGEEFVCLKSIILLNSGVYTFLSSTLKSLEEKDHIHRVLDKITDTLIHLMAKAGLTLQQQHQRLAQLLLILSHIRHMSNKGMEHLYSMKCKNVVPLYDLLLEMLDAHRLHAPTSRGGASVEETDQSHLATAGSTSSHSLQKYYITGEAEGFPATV

Row | Molecule | estradiol binding / estradiol displacement [1] | further results
1 | C[C@]12CC[C@@H]3c4ccc(O)cc4CC[C@H]3[C@@H]1CC[C@@H]2O [A, 17b-estradiol, reference compound] | binds at a very low concentration | –
2 | CC(C)(c1ccccc1)c1ccc(O)cc1 [B, p-Cumyl Phenol, reference compound] | displace estradiol at low concentrations | –
3 | CC(c1ccccc1)(c1ccc(O)cc1)c1ccc(O)cc1 [D, Bisphenol Acetophenone, reference compound] | displace estradiol at low concentrations | –
4 | Cc1cc(C(C)(C)c2cc(C)c(O)c(C)c2)cc(C)c1O [Example 1, Tetra Methyl BPA] | no estradiol binding | –
5 | Oc1ccccc1 [Example 2, Phenol] | no estradiol binding | IC50 ([1]; highest concentration tested 2.5×E-4 M): ≥ 250 µM
6 | O=C1c2ccccc2C(c2ccc(O)cc2)(c2ccc(O)cc2)N1c1ccccc1 [Example 3, N-Phenyl Phenolphthalein Bisphenol] | no estradiol binding | estradiol displacement at the beta receptor [2]: no detectible estradiol displacement; estradiol displacement at the alpha receptor [3]: no detectible estradiol displacement; estradiol binding / estradiol displacement ([1]; listed as N-phenyl phenyl phenolphthalein): no displacement
7 | Oc1cccc(O)c1 [Example 4, Resorcinol] | no estradiol binding | estradiol displacement at the beta receptor [2]: no detectible estradiol displacement; estradiol displacement at the alpha receptor [3]: no detectible estradiol displacement
8 | CC(C)(C)c1cc(O)c(C(C)(C)C)cc1O [Example 7, Di t-Butyl Hydroquinone] | no estradiol binding | estradiol displacement at the beta receptor [2]: no displacement; estradiol displacement at the alpha receptor [3]: no displacement; estradiol binding / estradiol displacement ([1]; listed as di-tert butyl hydroquinone): no displacement
9 | Cc1cc(O)ccc1O [Example 8, Methyl Hydroquinone] | no displacement; also recorded: no estradiol binding | estradiol displacement at the beta receptor [2]: no alpha or beta estradiol displacement
10 | Oc1ccc(Oc2ccc(O)cc2)cc1 [Example C, Dihydroxy Diphenyl Ether, reference compound] | displace estradiol at low concentrations | –
11 | Cc1cc(C2(c3ccc(O)c(C)c3)CCCCC2)ccc1O [G, Dimethyl Cyclohexyl Bisphenol, reference compound] | displace estradiol at low concentrations | –
12 | CC(C)(c1ccc(O)cc1)c1cccc(C(C)(C)c2ccc(O)cc2)c1 [K, Bisphenol M, reference compound] | displace estradiol at low concentrations | –
13 | O=C1OC(c2ccc(O)cc2)(c2ccc(O)cc2)c2ccccc21 [O, Phenolphthalein, reference compound] | undesirable estradiol displacement at low concentration | –
14 | Benzophenone bisphenol [reference compound] | undesirable estradiol displacement at low concentration | –
15 | Biphenol [Example 6] | no estradiol binding | estradiol displacement at the alpha receptor [3]: no displacement
16 | Bis Hydroxy Phenyl Menthane [reference compound] | displace estradiol at low concentrations | –
17 | Dimethyl Acetophenone Bisphenol [reference compound] | displace estradiol at low concentrations | –
18 | Diphenolic Acid Methyl Ester [F, reference compound] | displace estradiol at low concentrations | –
19 | Spiro Biindane Bisphenol [Example 5] | no displacement; also recorded: no estradiol binding | –
